Results published in patent publication US20080221045A1, “Hepatic Function-Improving Agent” (Kabushiki Kaisha Hayashibara Seibutsu Kagaku Kenkyujo, priority 2004, published 2008).

Assays:
[1] = mammals including humans with an elevated TG level; Yamada et al. 2003, Miwa et al. 2004; cited from earlier work
hepatic functions = assay: Administration test of α-glucosyl-hesperidin on hamsters (cholesterol-supplemented feed), serum GOT and GPT; assay type: in vivo, golden hamsters; settings: for Serum GOT / Serum GPT: 0.25 mmole/kg/day by stomach sonde, 5 weeks, last 3 weeks feed with 1% cholesterol, average ± SD; for Serum GOT: distilled water control 171 ± 46, before 46 ± 8; for Serum GPT: distilled water control 418 ± 106, before 81 ± 18; for serum levels of GOT and GPT compared with the distilled water group (control 1): 0.25 mmole/kg/day
Description: The animal experiment using hamsters was performed to investigate the influences of the intake of α-glucosyl-hesperidin on hepatic functions.
A group of five golden hamsters of five weeks old was fed on liberal amount of “NMF Lab Animal Diet Powder” (produced by Oriental Yeast Co., Ltd.) with the administration of “αG-HESPERIDIN PS®” (a powdery α-glucosyl-hesperidin containing 82.8% of α-glucosyl-hesperidin, commercialized by Hayashibara Shoji, Inc.) dissolved in distilled water. α-Glucosyl-hesperidin was administered to the hamsters through a stomach sonde at a dose of 0.25 mmole (193 mg)/kg/body weight every day. After two-week administrations of α-glucosyl-hesperidin, the hamsters were fed for additional three weeks in the same way as described above except that their feed was supplemented with 1% by weight of cholesterol. At four hours after the final administrations, the hamsters were anesthetized and under went laparotomy, and their large-venous blood samples were taken. After the separation of the hamsters' serums by a conventional method, the levels of GOT and GPT were measured. As the control 1, another group was fed and its blood samples were taken in the same way except that distilled water instead of α-glucosyl-hesperidin was administered to the hamsters. As the control 2, a third group was fed and their blood samples were taken in the same way except that hesperidin (a regent grade specimen, commercialized by Wako Pure Chemical Industries, Ltd.) instead of α-glucosyl-hesperidin suspended in distilled water was administered to the hamsters at a dose of 0.25 mmole (153 mg)/kg/body weight. The other group was fed on liberal amount of “NMF Lab Animal Diet Powder” with no administration of the test articles and their blood samples were taken in the same way as describe above, and the serum levels of GOT and GPT were measured to obtain the data before the administrations.

SMILES	effect on blood triglyceride (TG) level [1]	Serum GOT (hepatic functions) [IU/L]	Serum GPT (hepatic functions) [IU/L]	serum levels of GOT and GPT compared with the distilled water group (control 1) (hepatic functions; hamsters)	effect for keeping hepatic-function indexes at a lower level, compared with hesperidin (hepatic functions; hamsters, equal molar dose 0.25 mmole/kg/day)
COc1ccc(C2CC(=O)c3c(O)cc(O[C@@H]4OC(CO[C@@H]5OC(C)[C@H](O)C(O)C5O)[C@@H](COC[C@H]5OC(CO)[C@@H](O)C(O)C5O)C(O)C4O)cc3O2)cc1O (stereo partly drawn) [α-Glucosyl-hesperidin, α-glucosyl-hesperidin]	marked effect of reducing blood triglyceride	66 ± 44	226 ± 74	kept lower	greater effect than that of hesperidin
COc1ccc([C@@H]2CC(=O)c3c(O)cc(O[C@@H]4O[C@H](CO[C@@H]5O[C@@H](C)[C@H](O)[C@@H](O)[C@H]5O)[C@@H](O)[C@H](O)[C@H]4O)cc3O2)cc1O [Hesperidin, hesperidin, reference compound]		101 ± 30	298 ± 76	kept lower	
